BindingDB's records for doi:10.1021/acs.jmedchem.1c00926 (Biogen, 2022)

Experiment: Inhibition of CD69 in human whole blood preincubated for 30 mins followed by anti-human IgD stimulation and measured after 18 to 22 hrs by flow cytometry

Compound	IC50 [µM]
Cc1c(NC(=O)c2cc3c(s2)CCCC3)cccc1-c1cn(C)c(=O)c(Nc2ccc(C3CN(C)CC(=O)N3C)cc2)n1 (centres undefined)	1.2
CC(C)OC1CN(C(=O)N[C@@H]2CCCCc3cc(-c4ccnc(Nc5cnn(C)c5)n4)ccc32)C1	0.4
Cn1cc(Nc2nccc(-c3ccc4c(c3)CCCCC4NC(=O)c3cnc(C(C)(C)C)nc3)n2)cn1 (centres undefined)	> 10
Cn1cc(Nc2nccc(-c3ccc4c(c3)CCNC[C@H]4NC(=O)c3cn(C(C)(C)C)nn3)n2)cn1	0.4
Cn1cc(Nc2nccc(-c3ccc4c(c3)CNCC[C@H]4NC(=O)c3cn(C(C)(C)C)nn3)n2)cn1	1.6
CN1CCc2cc(-c3ccnc(Nc4cnn(C)c4)n3)ccc2[C@H](NC(=O)c2cn(C(C)(C)C)nn2)C1	0.7
Cn1cc(Nc2nccc(-c3ccc4c(c3)CCCCC4NC(=O)c3cn(C(C)(C)C)nn3)n2)cn1 (centres undefined) [1-(tert-butyl)-N-(2-(2-((1-methyl-1H-pyrazol-4-yl)amino)pyrimidin-4-yl)-6,7,8,9-tetrahydro-5H-benzo[7]annulen-5-yl)-1H-1,2,3-triazole-4-carboxamide]	0.86
COCCN1CC[C@@H](NC(=O)c2cn(C(C)(C)C)nn2)c2ccc(-c3ccnc(Nc4cnn(C)c4)n3)cc2C1 [(R)-1-(tert-butyl)-N-(2-(2-methoxyethyl)-8-(2-((1-methyl-1H-pyrazol-4-yl)amino)pyrimidin-4-yl)-2,3,4,5-tetrahydro-1H-benzo[c]azepin-5-yl)-1H-1,2,3-triazole-4-carboxamide ]	0.8

Further lines, results first:

IC50 [µM]	Compound
0.04	Cn1cc(Nc2nccc(-c3ccc4c(c3)CCCCC4NC(=O)N3CC[C@@H](C(C)(C)C)C3)n2)cn1 (some centres undefined)
0.059	Cn1cc(Nc2nccc(-c3ccc4c(c3)CCCC[C@H]4NC(=O)c3nc(C(C)(C)C)no3)n2)cn1
0.104	Cn1cc(Nc2nccc(-c3ccc4c(c3)CCCC[C@H]4NC(=O)c3cn(C(C)(C)C)nn3)n2)cn1
0.22	Cn1cc(Nc2nccc(-c3ccc4c(c3)CCCCC4NC(=O)c3nc(C(C)(C)C)no3)n2)cn1 (centres undefined) [3-(tert-butyl)-N-(2-(2-((1-methyl-1H-pyrazol-4-yl)amino)pyrimidin-4-yl)-6,7,8,9-tetrahydro-5H-benzo[7]annulen-5-yl)-1,2,4-oxadiazole-5-carboxamide ]
0.39	Cn1cc(Nc2nccc(-c3ccc4c(c3)CCCCC4NC(=O)c3nnc(C(C)(C)C)o3)n2)cn1 (centres undefined) [5-(tert-butyl)-N-(2-(2-((1-methyl-1H-pyrazol-4-yl)amino)pyrimidin-4-yl)-6,7,8,9-tetrahydro-5H-benzo[7]annulen-5-yl)-1,3,4-oxadiazole-2-carboxamide]
0.33	Cn1cc(Nc2nccc(-c3ccc4c(c3)CCCC[C@H]4NC(=O)c3nnc(C(C)(C)C)o3)n2)cn1 [(R)-5-(tert-butyl)-N-(2-(2-((1-methyl-1H-pyrazol-4-yl)amino)pyrimidin-4-yl)-6,7,8,9-tetrahydro-5H-benzo[7]annulen-5-yl)-1,3,4-oxadiazole-2-carboxamide ]
